{"source": "paper PMC10447463", "about": "“Data-mining unveils structure–property–activity correlation of viral infectivity enhancing self-assembling peptides” (Nature Communications, 2023)", "data": [{"tested_on": "not given", "test": "not given", "assay_type": "physicochemical", "conditions": "ThT-active if fluorescence at least twice the control", "protocol": "4 µL of 1 mg/mL peptide fibrils solution is added to a 20 µL, 50 µM ThT–solution in PBS. The mixture is incubated for 15 min at RT to allow binding of ThT dye with β–sheet rich structures. For reference PBS (4 µL) was added instead of peptide fibril solution. The samples were placed in black UV Star® 384 microliter well–plates (Greiner bio–one). Fluorescence spectra were recorded on an Infinite® M1000 PRO microplate reader (Tecan) at λem = 488 nm upon excitation at λex = 440 nm with 10 nm bandwidths and multiple reads per well (3×3). Measurements were repeated in triplicates and averaged with standard deviation. […] Zeta-Potential. For the determination of the surface charge of aggregated peptides zeta-potential measurements were conducted with a Zetasizer Nano ZS, Malvern Instruments. Unless stated otherwise the peptides were dissolved from DMSO (10 mg/mL) in PBS (pH 7.4) to concentration of 1 mg/mL and incubated for 1d at RT. Just before the measurement the 60 µL of the peptides were further diluted in 600 µL KCl (aq, 1 mM) in a 1 mL disposable folded capillary cells (DTS–1060, Zetasizer Nano series, Malvern). The zeta potential of the peptides was derived from the electrophoretic mobility based on the Smoluchowski formula. All measurements were averaged over two individually performed experiments and conducted in triplicates for each sample. Aggregate analysis. […] Furthermore, fluorescence microscopy was conducted by staining 1 µL preformed fibrils (1 mg/mL) with 9 µL ThT (50 µM). Brightfield microscopy was performed simultaneously to evaluate aggregation also for non ThT-active fibrils. The measurements were performed on a Leica DMi8 microscope with 10x air objective and equipped with a Leica MC170 HD camera with a filter setting λem = 527/30 nm upon excitation at λex = 480/40 nm) and processed with the Leica LASX software. To quantify size and number of microscopic aggregation of particles > 10 µm^2 at least 3 independently measured images were analyzed via the 3D object counter analysis tool of ImageJ, v 1.53f51. Sum–frequency generation. The SFG experiments were carried out with a femtosecond Ti: Sapphire amplified laser system (Spitfire Ace, Spectra–Physics, 800 nm, 40 fs, 1 kHz) with 5 W output power. We used 2 W to pump an optical parametric amplifier (TOPAS, light conversion) with a non–collinear difference frequency generation stage to generate broadband IR pulses. Another 1 W of the laser output passed through an etalon to generate narrowband visible pulses (10 cm^-1). The incident angles of the visible and IR beams were 36° and 41° with respect to the surface normal, respectively. The visible (13 µJ) and IR (5 µJ) pulses were overlapped spatially and temporally at the sample position. Subsequently, the generated SFG pulse was guided into a spectrograph (Acton SP 300i, Princeton Instruments), and detected with an EMCCD (Newton, Andor Technology). To avoid IR absorption of water vapor, we purged N2 for the measurement. All spectra were collected in the ssp (denoting s-, s- and p-polarized SFG, visible and IR, respectively) polarization combination. The spectra were normalized to the non–resonant signal taken from z–cut quartz after subtracting a background spectrum.\n(§1) 1. Remarks on experimental parameters and bioinformatic descriptors", "values": [{"substance": "KKWWNF", "ThT Cat. / ThT-Fluorescence (categorical)": "0 (ThT-inactive (N-Fold <2))"}, {"substance": "RVWWNF", "ThT Cat. / ThT-Fluorescence (categorical)": "0 (ThT-inactive (N-Fold <2))"}, {"substance": "KVWWNF", "ThT Cat. / ThT-Fluorescence (categorical)": "0 (ThT-inactive (N-Fold <2))"}]}, {"tested_on": "not given", "test": "not given", "assay_type": "physicochemical", "parameters": "key to Fibril / Fibril Formation / TEM 2cat / Fibril: 1 = fibrils present; 0 non-fibrillar structures", "conditions": "TEM, 1 mg/mL, uranyl acetate stain, qualitative", "protocol": "For ATR FT–IR spectroscopy measurements, 200 µL of the respective 1 mg/mL PNF solution was lyophilized and the resulting powder used for measurement. All spectra were recorded on a Bruker Tensor 27 spectrometer with a diamond crystal as ATR element (PIKE MiracleTM, spectral resolution 2 cm^-1). Every sample was measured with 64 scans. Data were analyzed with OriginLab software and calculation of β–sheet content was conducted according to a previous report. TEM. For TEM measurements 5 µL of PNF fibrils (1 mg/mL) were placed on copper grids coated with carbon and formvar layer (300 mesh, Plano GmbH). After 10 min incubation time, the grids were staining with 4% uranyl acetate solution for 2.5 min and washed with water. Measurements were performed on a Jeol 1400 electron microscope with 120 kV acceleration voltage. CR Assay. For the determination of the amount of peptide monomer converting into nanostructures the amine reactive dye fluorescamine was used analogous to a previous reported protocol. Briefly, 100 µL of the preformed PNF solution was centrifuged in a Vivaspin 500 tube (3 kDa MWCO) to separate fibers from free peptide monomer (16200 x g, 4 °C, 45 min). The filtrate and 100 μL of the non-filtered PNF sample were lyophilized and dissolved in 30 μL DMSO. 10 μL of the filtrate and non-filtered DMSO samples were submitted in a black UV Star® 384 microliter well–plates (Greiner bio–one) and 3 μL of the fluorescamine solution (10 mg/mL, DMSO) was added to measure the fluorescence enhancement. After 20 min of incubation at RT, fluorescence was recorded on an Infinite® M1000 PRO microplate reader (Tecan) at λem = 470 nm upon excitation at λex = 365 nm with 10 nm bandwidths and multiple reads per well (3×3). Measurements were repeated in triplicates and averaged with standard deviation. All values were calculated as n-fold fluorescence enhancement (DMSO only as a reference was set to 1). The conversion rate CR was defined according to the equation Eq. (3).3 CR=100−100×fluorescenceintensityfiltrate/fluorescenceintensityoriginal[%]\nas §1\n1.1 Experimental parameters\nTransmission electron microscopy (TEM) measurements. TEM measurements were used to control if peptides assemble. The assemblies were categorized in non -fibrillar structures (no assembly, […]\ngrid but only amorphous aggregates. In contrast, peptides defined as fibrillar may also include amorphous structures. Amongst nonfibrillar assemblies also amorphous aggregates are summarized.\nAmorphous aggregates are defined as structures with high β-sheet content which lack long-range order, that is crystallinity or fibril formation. It is generally assumed that these structures might be", "values": [{"substance": "KKWWNF", "Fibril / Fibril Formation": 0}, {"substance": "RVWWNF", "Fibril / Fibril Formation": 0}, {"substance": "KVWWNF", "Fibril / Fibril Formation": 0}]}, {"tested_on": "HIV-1 infection of TZM-bl cells", "test": "HIV-1 infectivity enhancement assay, β-galactosidase luminescence", "assay_type": "cell-based", "conditions": "input.xlsx of the Pattern-Analysis script; infectivity relative to EF-C (peptide 59 = 1.00)", "values": [{"substance": "KIKIKIQINMWQ [compound 163]", "infectivity": 0.79}, {"substance": "KYKGAIIGNIK [compound 34]", "infectivity": 0.0031}, {"substance": "CKFKFQFNMWQ [compound 4]", "infectivity": 1.16}, {"substance": "KIKIQINAWQ [compound 84]", "infectivity": 0.54}, {"substance": "KFKFQFN [compound 9]", "infectivity": 0.018}, {"substance": "KVKVKVQV [compound 64]", "infectivity": 0.0173}, {"substance": "CKFC [compound 50]", "infectivity": 0.011}, {"substance": "KIKIQINMWA [compound 81]", "infectivity": 0.69}, {"substance": "RGDSGGGGGGKIKIQIC [compound 127]", "infectivity": 0.87}, {"substance": "KFKFKFQF [compound 118]", "infectivity": 0.80}, {"substance": "CKFKFQF [compound 6]", "infectivity": 1.23}, {"substance": "KLKLKLQL [compound 117]", "infectivity": 0.10}, {"substance": "IKVAVKIKIQINM [compound 150]", "infectivity": 0.50}, {"substance": "QCKIKIQINM [compound 18]", "infectivity": 0.40}, {"substance": "KFKFEFEF [compound 106]", "infectivity": 0.0284}, {"substance": "CKIKIQI [compound 99]", "infectivity": 1.02}, {"substance": "RGDSKIKIQIC [compound 126]", "infectivity": 0.60}, {"substance": "KIKIQINM [compound 76]", "infectivity": 0.36}, {"substance": "NMWQKFKFQF [compound 63]", "infectivity": 0.27}, {"substance": "KIKQIINM [compound 73]", "infectivity": 0.45}, {"substance": "NMWQKIKIQI [compound 72]", "infectivity": 0.21}, {"substance": "CKIW [compound 152]", "infectivity": 0.05}, {"substance": "CQFQFQF [compound 112]", "infectivity": 0.35}, {"substance": "HIHIQIC [compound 29]", "infectivity": 0.27}, {"substance": "RGDKIKIQIC [compound 103]", "infectivity": 0.83}, {"substance": "KIKQII [compound 107]", "infectivity": 0.00492}, {"substance": "CKIKIQINMW [compound 153]", "infectivity": 1.29}, {"substance": "HHHHKIKIKIKIWWWW [compound 140]", "infectivity": 0.38}, {"substance": "RGDKIKIQINM [compound 104]", "infectivity": 0.41}, {"substance": "CKAKAQANM [compound 11]", "infectivity": 0.03}, {"substance": "HGEHGE [compound 53]", "infectivity": 0.00641}, {"substance": "CKFKQFFNM [compound 16]", "infectivity": 0.41}, {"substance": "HHHHKAKAKAKAWWWW [compound 151]", "infectivity": 0.09}, {"substance": "KFKQFFNMWQ [compound 68]", "infectivity": 0.09}, {"substance": "KFKFQFNMW [compound 7]", "infectivity": 0.45}, {"substance": "QCKAKAQANM [compound 20]", "infectivity": 0.0146}, {"substance": "RGDKIKIQI [compound 97]", "infectivity": 0.0157}, {"substance": "KYKYQY [compound 88]", "infectivity": 0.01}, {"substance": "CKIKIQINM [compound 98]", "infectivity": 1.59}, {"substance": "CKYKYQY [compound 92]", "infectivity": 0.04}, {"substance": "MKIKIQINMWQ [compound 143]", "infectivity": 0.42}, {"substance": "KFKFQF [compound 80]", "infectivity": 0.06}, {"substance": "CKIKQIINM [compound 3]", "infectivity": 0.50}, {"substance": "KIRGKFEKED [compound 47]", "infectivity": 0.06}, {"substance": "KAKAQA [compound 78]", "infectivity": 0.0181}, {"substance": "QCKIKQII [compound 24]", "infectivity": 0.00647}, {"substance": "EIEIEIEI [compound 82]", "infectivity": 0.0178}, {"substance": "NMWQKAKAQA [compound 62]", "infectivity": 0.04}, {"substance": "RLRLTLC [compound 30]", "infectivity": 0.05}, {"substance": "TKTLTKTL [compound 41]", "infectivity": 0.0213}, {"substance": "KWKWQW [compound 93]", "infectivity": 0.0145}, {"substance": "KIKQIINMWQ [compound 65]", "infectivity": 0.35}]}]}
